Assay results reported in PubChem BioAssay AID2060484 (Molecular Pharmacology Branch, DTP, NCI, 2025).

Tested on: SUM149PT spheroids with HUVEC/MSC, viability
Assay: Anticancer human tumor SUM149PT cell line growth inhibition [GQUAD];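 further: spheroids exposed to drugs for seven days before readout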;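 on viability, T/C: percent viability relative to DMSO vehicle control taken as 100%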
Conditions: for IC50: curve of first compound; for viability, T/C: stronger effect = lower value
Method in brief: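 Viability of tumor cells grown as complex spheroids with endothelial and stromal cells, exposed to drug combinations. Top concentration at or near clinical Cmax (else 10 microM), diluted in half-log increments.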

[1] = second compound 0.0316 µM, first compound 0.0316 µM
[2] = second compound 0.0316 µM, first compound 0.1 µM
[3] = second compound 0.0316 µM, first compound 0.316 µM
[4] = second compound 0.0316 µM, first compound 1 µM
[5] = second compound 0.0316 µM, first compound 3.16 µM
[6] = second compound 0.0316 µM, first compound 10 µM
[7] = second compound 0.1 µM, first compound 0.0316 µM
[8] = second compound 0.1 µM, first compound 0.1 µM
[9] = second compound 0.1 µM, first compound 0.316 µM
[10] = second compound 0.1 µM, first compound 1 µM
[11] = second compound 0.1 µM, first compound 3.16 µM
[12] = second compound 0.1 µM, first compound 10 µM
[13] = second compound 0.316 µM, first compound 0.0316 µM
[14] = second compound 0.316 µM, first compound 0.1 µM
[15] = second compound 0.316 µM, first compound 0.316 µM
[16] = second compound 0.316 µM, first compound 1 µM
[17] = second compound 0.316 µM, first compound 3.16 µM
[18] = second compound 0.316 µM, first compound 10 µM
[19] = second compound 1 µM, first compound 0.0316 µM
[20] = second compound 1 µM, first compound 0.1 µM
[21] = second compound 1 µM, first compound 0.316 µM
[22] = second compound 1 µM, first compound 1 µM
[23] = second compound 1 µM, first compound 3.16 µM
[24] = second compound 1 µM, first compound 10 µM
[25] = second compound 3.16 µM, first compound 0.0316 µM
[26] = second compound 3.16 µM, first compound 0.1 µM
[27] = second compound 3.16 µM, first compound 0.316 µM
[28] = second compound 3.16 µM, first compound 1 µM
[29] = second compound 3.16 µM, first compound 3.16 µM
[30] = second compound 3.16 µM, first compound 10 µM
[31] = second compound 10 µM, first compound 0.0316 µM
[32] = second compound 10 µM, first compound 0.1 µM
[33] = second compound 10 µM, first compound 0.316 µM
[34] = second compound 10 µM, first compound 1 µM
[35] = second compound 10 µM, first compound 3.16 µM
[36] = second compound 10 µM, first compound 10 µM

Work on `CC1COCCN1c1cc(-c2ccnn2C)c2ccnc(-c3ccn[nH]3)c2n1` (stereo not drawn) + Cc1cnc(CNC(=O)c2c(=O)c3ccc(N4CCCN(C)CC4)nc3n3c2sc2ccccc23)cn1 yielded an IC50 (second compound 0.0316 µM) of less than 0.0316 µM, an IC50 (second compound 0.1 µM) of less than 0.0316 µM and an IC50 (second compound 0.316 µM) of less than 0.0316 µM. It also gave an IC50 (second compound 1 µM) of less than 0.0316 µM, an IC50 (second compound 3.16 µM) of less than 0.0316 µM and an IC50 (second compound 10 µM) of less than 0.0316 µM. The viability, T/C [1] was 14.7%, the viability, T/C [2] was 12.5% and the viability, T/C [3] was 18.1%. The viability, T/C [4] was 18.2%, the viability, T/C [5] was 20.6% and the viability, T/C [6] was 19.2%. It also gave a viability, T/C [7] of 17.1%, a viability, T/C [8] of 19.6% and a viability, T/C [9] of 18.7%. The viability, T/C [10] was 20.3%, the viability, T/C [11] was 20.3% and the viability, T/C [12] was 20.4%. It also gave a viability, T/C [13] of 21.1%, a viability, T/C [14] of 20.5% and a viability, T/C [15] of 24.3%. It also gave a viability, T/C [16] of 20.3%, a viability, T/C [17] of 21.9% and a viability, T/C [18] of 18.4%. The viability, T/C [19] was 21.4%, the viability, T/C [20] was 23.1% and the viability, T/C [21] was 26.4%. For the same compound, the viability, T/C [22] was 21.5%, the viability, T/C [23] was 20.7% and the viability, T/C [24] was 17.5%. For the same compound, the viability, T/C [25] was 25.9%, the viability, T/C [26] was 23.6% and the viability, T/C [27] was 24.2%. The viability, T/C [28] was 20.8%, the viability, T/C [29] was 18.8% and the viability, T/C [30] was 15.9%. For the same compound, the viability, T/C [31] was 0.11%, the viability, T/C [32] was 0.15% and the viability, T/C [33] was 0.93%. It also gave a viability, T/C [34] of 1.21%, a viability, T/C [35] of 1.74% and a viability, T/C [36] of 0.18%.

`O=C(NO)c1cnc(N2CCN(S(=O)(=O)c3ccc4ccccc4c3)CC2)nc1` + Cc1[nH]c2ccc(F)cc2c1-c1nc2c3cccnc3c3ncccc3c2[nH]1 showed an IC50 (second compound 0.0316 µM) of 0.381 µM, an IC50 (second compound 0.1 µM) of 0.45 µM and an IC50 (second compound 0.316 µM) of 0.539 µM. For the same compound, the IC50 (second compound 1 µM) was 0.617 µM, the IC50 (second compound 3.16 µM) was 0.66 µM and the IC50 (second compound 10 µM) was 0.801 µM. It also gave a viability, T/C [1] of 100%, a viability, T/C [2] of 97.1% and a viability, T/C [3] of 59.4%. The viability, T/C [4] was 1.37%, the viability, T/C [5] was 0.22% and the viability, T/C [6] was 2.18%. It also gave a viability, T/C [7] of 102%, a viability, T/C [8] of 102% and a viability, T/C [9] of 67.8%. It also gave a viability, T/C [10] of 9.4%, a viability, T/C [11] of 0.18% and a viability, T/C [12] of 0.21%. For the same compound, the viability, T/C [13] was 104%, the viability, T/C [14] was 101% and the viability, T/C [15] was 78%. The viability, T/C [16] was 17.8%, the viability, T/C [17] was 0.15% and the viability, T/C [18] was 1.25%. It also gave a viability, T/C [19] of 105%, a viability, T/C [20] of 98.1% and a viability, T/C [21] of 78.8%. It also gave a viability, T/C [22] of 30.1%, a viability, T/C [23] of 0.16% and a viability, T/C [24] of 0.2%. The viability, T/C [25] was 107%, the viability, T/C [26] was 101% and the viability, T/C [27] was 74.2%. For the same compound, the viability, T/C [28] was 38.8%, the viability, T/C [29] was 0.2% and the viability, T/C [30] was 0.4%. The viability, T/C [31] was 106%, the viability, T/C [32] was 93.5% and the viability, T/C [33] was 79.4%. It also gave a viability, T/C [34] of 47.4%, a viability, T/C [35] of 0.29% and a viability, T/C [36] of 0.25%.

With `CC1COCCN1c1cc(-c2ccnn2C)c2ccnc(-c3ccn[nH]3)c2n1` (stereo not drawn) + Cc1[nH]c2ccc(F)cc2c1-c1nc2c3cccnc3c3ncccc3c2[nH]1 the IC50 (second compound 0.0316 µM) was 0.0891 µM, the IC50 (second compound 0.1 µM) was 0.0955 µM and the IC50 (second compound 0.316 µM) was 0.107 µM. The IC50 (second compound 1 µM) was 0.12 µM, the IC50 (second compound 3.16 µM) was 0.0972 µM and the IC50 (second compound 10 µM) was 0.0939 µM. It also gave a viability, T/C [1] of 90.7%, a viability, T/C [2] of 45.6% and a viability, T/C [3] of 25.8%. It also gave a viability, T/C [4] of 26.4%, a viability, T/C [5] of 27% and a viability, T/C [6] of 26.3%. For the same compound, the viability, T/C [7] was 82.7%, the viability, T/C [8] was 48.6% and the viability, T/C [9] was 25.1%. The viability, T/C [10] was 21.8%, the viability, T/C [11] was 28.6% and the viability, T/C [12] was 25.7%. It also gave a viability, T/C [13] of 95.1%, a viability, T/C [14] of 51.4% and a viability, T/C [15] of 23.3%. It also gave a viability, T/C [16] of 23.9%, a viability, T/C [17] of 25.8% and a viability, T/C [18] of 25.3%. For the same compound, the viability, T/C [19] was 92.4%, the viability, T/C [20] was 54.5% and the viability, T/C [21] was 26.4%. It also gave a viability, T/C [22] of 26.4%, a viability, T/C [23] of 24.8% and a viability, T/C [24] of 26.6%. It also gave a viability, T/C [25] of 98.2%, a viability, T/C [26] of 48.8% and a viability, T/C [27] of 25.4%. It also gave a viability, T/C [28] of 26.2%, a viability, T/C [29] of 25.7% and a viability, T/C [30] of 22.5%. For the same compound, the viability, T/C [31] was 92.7%, the viability, T/C [32] was 47.6% and the viability, T/C [33] was 24.2%. For the same compound, the viability, T/C [34] was 27.4%, the viability, T/C [35] was 23% and the viability, T/C [36] was 24.1%.

Compound `COc1ccc([C@@H](O)c2cc(-c3ncnc4cc(N5CCOCC5)ccc34)c(F)cc2Cl)nn1` + CN(C)c1ccc(Nc2c3ccc(NC(=O)CCN4CCCC4)cc3nc3cc(NC(=O)CCN4CCCC4)ccc23)cc1 has an IC50 (second compound 0.0316 µM) of 1.87 µM, an IC50 (second compound 0.1 µM) of 1.17 µM and an IC50 (second compound 0.316 µM) of 1.16 µM. The IC50 (second compound 1 µM) was 1.02 µM, the IC50 (second compound 3.16 µM) was 0.96 µM and the IC50 (second compound 10 µM) was 0.844 µM. It also gave a viability, T/C [1] of 103%, a viability, T/C [2] of 86% and a viability, T/C [3] of 73.1%. For the same compound, the viability, T/C [4] was 63%, the viability, T/C [5] was 38.2% and the viability, T/C [6] was 32.1%. For the same compound, the viability, T/C [7] was 89.1%, the viability, T/C [8] was 92.2% and the viability, T/C [9] was 80.6%. For the same compound, the viability, T/C [10] was 52.4%, the viability, T/C [11] was 34.3% and the viability, T/C [12] was 28.8%. The viability, T/C [13] was 88.1%, the viability, T/C [14] was 87.4% and the viability, T/C [15] was 71.5%. It also gave a viability, T/C [16] of 53.7%, a viability, T/C [17] of 34.3% and a viability, T/C [18] of 29.1%. It also gave a viability, T/C [19] of 91.5%, a viability, T/C [20] of 82.8% and a viability, T/C [21] of 77.2%. For the same compound, the viability, T/C [22] was 50.3%, the viability, T/C [23] was 31.8% and the viability, T/C [24] was 29.2%. The viability, T/C [25] was 82.6%, the viability, T/C [26] was 80% and the viability, T/C [27] was 75.3%. For the same compound, the viability, T/C [28] was 46.8%, the viability, T/C [29] was 33.7% and the viability, T/C [30] was 22.9%. For the same compound, the viability, T/C [31] was 79.9%, the viability, T/C [32] was 78.8% and the viability, T/C [33] was 73.1%. It also gave a viability, T/C [34] of 44.2%, a viability, T/C [35] of 31.4% and a viability, T/C [36] of 20.7%.
